According to US10047068B2, “Optical resolution method of lenalidomide” (Shiseido Company, Ltd, priority 2014, dated 2018):

Experiments:
[1] = NPL 11; cited from earlier work
[2] = Na-phosphate buffer pH 7.4, 37° C., average of 3 tests ± SD
[3] = Racemization half-life in human serum (37° C.); conditions: for racemization half-life in serum, times longer than the corresponding TD enantiomer: human serum, 37° C.
Text: The analysis method of the invention is shown as scheme (b). The acid used to suspend the reaction while simultaneously precipitating and removing the protein was HClO4.

[4] = Dependence of racemization half-life on pH in aqueous buffers at room temperature; format: physicochemical
Experimental: In order to elucidate the racemization half-life of lenalidomide and its pH dependence, an experiment was conducted with the following scheme and HPLC conditions.
The enantiomeric excess rate (EE, [(S−R)/(S+R)×100], %) at each point is plotted in FIG. 7, and the log10 (EE) vs. time plot is shown in FIG. 8.
This linearity was used to calculate the time for EE=50 based on a straight line approximation (y=ax+b), to determine the racemization half-life. The stability of the pure enantiomer is very highly dependent on pH, the half-life being 10 times longer for every pH reduction of 1, and estimation of the half-life was no longer possible at pH 4. At pH 9, on the other hand, sudden racemization and decomposition were observed.

[5] = Stability of lenalidomide in different solvents; format: physicochemical; conditions: 0.5 mg/mL racemic mixture, room temperature or 50° C., 24 hours

In the case of `O=C1CCC(N2C(=O)c3ccccc3C2=O)C(=O)N1` (racemic) [thalidomide], the excretion half-life [1] is given as 8.7 h.

In the case of `Nc1cccc2c1CN(C1CCC(=O)NC1=O)C2=O` (single isomer, unassigned) [(S*)-LL], the “racemization half-life in aqueous buffer” value [2] was 4.53 ± 0.0217 h, the “racemization half-life in serum, times longer than the corresponding TD enantiomer” value [3] was 6 times and the “racemization half-life in human serum” value [3] was 2.18 ± 0.0817 h. For the same molecule, the “racemization on incubation in aqueous buffer” value ([4]; pH 6, room temperature) was “small amount of (R*)-LL was produced” and the “racemization on incubation in aqueous buffer” value ([4]; pH 7 and higher, room temperature) was “racemization was significantly accelerated”.

With `Nc1cccc2c1CN(C1CCC(=O)NC1=O)C2=O` (racemic) [lenalidomide, Lenalidomide] the “stability in solvent (enantiomer peak areas before and after incubation)” value (shortened to “stability in solvent”) ([5]; acetonitrile) was “no decomposition was observed”, the “stability in solvent” value ([5]; ethanol) was “highly unstable” and the “stability in solvent” value ([5]; ethyl acetate) was “no decomposition was observed”. The “stability in solvent” value ([5]; isopropanol) was “stable”, the “stability in solvent” value ([5]; methanol) was “highly unstable” and the “racemization and decomposition in aqueous buffer (peak areas)” value ([4]; pH 9 and 8, room temperature) was “racemization and decomposition of LL takes place”.

With `Nc1cccc2c1CN(C1CCC(=O)NC1=O)C2=O` (single isomer, unassigned) [(R*)-LL] the “racemization half-life in aqueous buffer” value [2] was 4.45 ± 0.0183 h, the “racemization half-life in serum, times longer than the corresponding TD enantiomer” value [3] was 3 times and the “racemization half-life in human serum” value [3] was 1.82 ± 0.0333 h.
